# Measurements published in patent publication US12077503B2, “Substituted cyclic amides and their use as herbicides” (FMC CORPORATION, priority 2015, dated 2024).
# Assays:
# Format in all cases: in vivo
# Kochia (Kochia scoparia) = assay: Test C postemergence; details: scale 0 to 100, 0 no effect, 100 complete control
# Description: (§1) Seeds of plant species selected from blackgrass (Alopecurus myosuroides), ryegrass, Italian (Italian ryegrass, Lolium multiflorum), wheat (winter wheat, Triticum aestivum), Galium (catchweed bedstraw, Galium aparine), corn (Zea mays), crabgrass, large (large crabgrass, Digitaria sanguinalis), foxtail, giant (giant foxtail, Setaria faberii), johnsongrass (Sorghum halepense), lambsquarters (Chenopodium album), morningglory (Ipomoea coccinea), nutsedge, yellow (yellow nutsedge, Cyperus esculentus), pigweed (Amaranthus retroflexus), ragweed (common ragweed, Ambrosia elatior), soybean (Glycine max), barnyardgrass (Echinochloa crus-galli), oilseed rape (Brassica napus), waterhemp (common waterhemp, Amaranthus rudis) and velvetleaf (Abutilon theophrasti) were planted into a blend of loam soil and sand and treated preemergence with test chemicals formulated in a non-phytotoxic solvent mixture which included a surfactant.
# (§2) At the same time, plants selected from these crop and weed species and also Kochia (Kochia scoparia), oat, wild (wild oat, Avena fatua), and chickweed (common chickweed, Stellaria media) were planted in pots containing Sunshine Redi-Earth® planting medium comprising spaghnum peat moss, vermiculite, starter nutrients and dolomitic limestone and treated with postemergence applications of test chemicals formulated in the same manner. Plants ranged in height from 2 to 18 cm (1- to 4-leaf stage) for postemergence treatments. Treated plants and controls were maintained in a greenhouse for 13 to 15 d, after which time all species were compared to controls and visually evaluated. Plant response ratings, summarized in Table C, are based on a scale of 0 to 100 where 0 is no effect and 100 is complete control. A dash (-) response means no test result.
# corn (Zea mays) = assay: Test C postemergence; details: scale 0 to 100, 0 no effect, 100 complete control
# Description: as §1, §2
# [1] = test system: waterhemp (common waterhemp, Amaranthus rudis); assay: Test C postemergence; details: scale 0 to 100, 0 no effect, 100 complete control
# Description: as §1, §2
# [2] = test system: lambsquarters (Chenopodium album); assay: Test C postemergence; details: scale 0 to 100, 0 no effect, 100 complete control
# Description: as §1, §2
# [3] = test system: crabgrass, large (large crabgrass, Digitaria sanguinalis); assay: Test C postemergence; details: scale 0 to 100, 0 no effect, 100 complete control
# Description: as §1, §2
# soybean (Glycine max) = assay: Test C postemergence; details: scale 0 to 100, 0 no effect, 100 complete control
# Description: as §1, §2
# [4] = test system: oat, wild (wild oat, Avena fatua); assay: Test C postemergence; details: scale 0 to 100, 0 no effect, 100 complete control
# Description: as §1, §2
# [5] = test system: foxtail, giant (giant foxtail, Setaria faberii); assay: Test C postemergence; details: scale 0 to 100, 0 no effect, 100 complete control
# Description: as §1, §2
# [6] = test system: nutsedge, yellow (yellow nutsedge, Cyperus esculentus); assay: Test C postemergence; details: scale 0 to 100, 0 no effect, 100 complete control
# Description: as §1, §2
# [7] = test system: blackgrass (Alopecurus myosuroides); assay: Test C postemergence; details: scale 0 to 100, 0 no effect, 100 complete control
# Description: as §1, §2
# [8] = test system: oilseed rape (Brassica napus); assay: Test C postemergence; details: scale 0 to 100, 0 no effect, 100 complete control
# Description: as §1, §2
# [9] = test system: Galium (catchweed bedstraw, Galium aparine); assay: Test C postemergence; details: scale 0 to 100, 0 no effect, 100 complete control
# Description: as §1, §2
# [10] = test system: water seeded rice seedlings (Rice, W. S. Jap, Oryza sativa cv. ‘Japonica—M202’); assay: Test F flooded paddy test; set-up: key: 0 = no effect, 100 = complete control; details: Flood
# [11] = test system: barnyardgrass (Echinochloa crus-galli); assay: Test F flooded paddy test; set-up: key: 0 = no effect, 100 = complete control; details: Flood
# [12] = test system: late watergrass (Echinochloa oryzicola); assay: Test F flooded paddy test; set-up: key: 0 = no effect, 100 = complete control; details: Flood
# [13] = test system: Monochoria (Monochoria vaginalis); assay: Test F flooded paddy test; set-up: key: 0 = no effect, 100 = complete control; details: Flood
structure (smiles),measurement,setting,value
CN1CC(c2ccc(F)c(F)c2)C(C(=O)Nc2ccccc2S(C)(=O)=O)C1=O (centres unmarked) [Compound 640],"Plant response rating, Kochia",Kochia (Kochia scoparia); 31 g ai/ha,20
same,"Plant response rating, Kochia",Kochia (Kochia scoparia); 62 g ai/ha,30
same,"Plant response rating, Kochia",Kochia (Kochia scoparia); 125 g ai/ha,30
same,"Plant response rating, Kochia",Kochia (Kochia scoparia); 250 g ai/ha,75
same,"Plant response rating, Corn",corn (Zea mays); 31 g ai/ha,0
same,"Plant response rating, Corn",corn (Zea mays); 62 g ai/ha,0
same,"Plant response rating, Corn",corn (Zea mays); 125 g ai/ha,0
same,"Plant response rating, Corn",corn (Zea mays); 250 g ai/ha,0
same,"Plant response rating, Waterhemp",[1]; 31 g ai/ha,5
same,"Plant response rating, Waterhemp",[1]; 62 g ai/ha,20
same,"Plant response rating, Waterhemp",[1]; 125 g ai/ha,10
same,"Plant response rating, Waterhemp",[1]; 250 g ai/ha,30
same,"Plant response rating, Lambsquarters",[2]; 31 g ai/ha,30
same,"Plant response rating, Lambsquarters",[2]; 62 g ai/ha,20
same,"Plant response rating, Lambsquarters",[2]; 125 g ai/ha,70
same,"Plant response rating, Lambsquarters",[2]; 250 g ai/ha,40
same,"Plant response rating, Crabgrass, Large",[3]; 31 g ai/ha,0
same,"Plant response rating, Crabgrass, Large",[3]; 62 g ai/ha,0
same,"Plant response rating, Crabgrass, Large",[3]; 125 g ai/ha,10
same,"Plant response rating, Crabgrass, Large",[3]; 250 g ai/ha,35
same,"Plant response rating, Soybean",soybean (Glycine max); 31 g ai/ha,65
same,"Plant response rating, Soybean",soybean (Glycine max); 62 g ai/ha,10
same,"Plant response rating, Soybean",soybean (Glycine max); 125 g ai/ha,10
same,"Plant response rating, Soybean",soybean (Glycine max); 250 g ai/ha,5
same,"Plant response rating, Oat, Wild",[4]; 31 g ai/ha,0
same,"Plant response rating, Oat, Wild",[4]; 62 g ai/ha,0
same,"Plant response rating, Oat, Wild",[4]; 125 g ai/ha,0
same,"Plant response rating, Oat, Wild",[4]; 250 g ai/ha,5
same,"Plant response rating, Foxtail, Giant",[5]; 31 g ai/ha,0
same,"Plant response rating, Foxtail, Giant",[5]; 62 g ai/ha,0
same,"Plant response rating, Foxtail, Giant",[5]; 125 g ai/ha,10
same,"Plant response rating, Foxtail, Giant",[5]; 250 g ai/ha,65
same,"Plant response rating, Nutsedge, Yellow",[6]; 31 g ai/ha,0
same,"Plant response rating, Nutsedge, Yellow",[6]; 62 g ai/ha,0
same,"Plant response rating, Nutsedge, Yellow",[6]; 125 g ai/ha,0
same,"Plant response rating, Nutsedge, Yellow",[6]; 250 g ai/ha,10
same,"Plant response rating, Blackgrass",[7]; 31 g ai/ha,0
same,"Plant response rating, Blackgrass",[7]; 62 g ai/ha,0
same,"Plant response rating, Blackgrass",[7]; 125 g ai/ha,0
same,"Plant response rating, Blackgrass",[7]; 250 g ai/ha,0
same,"Plant response rating, Oilseed Rape",[8]; 31 g ai/ha,20
same,"Plant response rating, Oilseed Rape",[8]; 62 g ai/ha,15
same,"Plant response rating, Oilseed Rape",[8]; 125 g ai/ha,50
same,"Plant response rating, Oilseed Rape",[8]; 250 g ai/ha,60
same,"Plant response rating, Galium",[9]; 31 g ai/ha,50
same,"Plant response rating, Galium",[9]; 62 g ai/ha,55
same,"Plant response rating, Galium",[9]; 125 g ai/ha,60
same,"Plant response rating, Galium",[9]; 250 g ai/ha,65
CN1CC(c2cccc(OC(F)F)c2)C(C(=O)Nc2ccc(F)cc2F)C1=O (centres unmarked) [Compound 617],"Plant response rating: Rice, Water Seeded",[10]; 32 g ai/ha,0
same,"Plant response rating: Rice, Water Seed.",[10]; 64 g ai/ha,0
same,"Plant response rating: Rice, Water Seed.",[10]; 125 g ai/ha,20
same,"Plant response rating: Rice, Water Seeded",[10]; 250 g ai/ha,60
same,Plant response rating: Barnyardgrass,[11]; 32 g ai/ha,60
same,Plant response rating: Barnyardgrass,[11]; 64 g ai/ha,85
same,Plant response rating: Barnyardgrass,[11]; 125 g ai/ha,100
same,Plant response rating: Barnyardgrass,[11]; 250 g ai/ha,100
same,"Plant response rating: Watergrass, Late",[12]; 32 g ai/ha,100
same,"Plant response rating: Watergrass, Late",[12]; 64 g ai/ha,100
same,"Plant response rating: Watergrass, Late",[12]; 125 g ai/ha,100
same,"Plant response rating: Watergrass, Late",[12]; 250 g ai/ha,100
same,Plant response rating: Monochoria,[13]; 32 g ai/ha,0
same,Plant response rating: Monochoria,[13]; 64 g ai/ha,40
same,Plant response rating: Monochoria,[13]; 125 g ai/ha,70
same,Plant response rating: Monochoria,[13]; 250 g ai/ha,100
Cc1ccc(C2CN(C)C(=O)C2C(=O)Nc2ccccc2F)cc1F (centres unmarked) [Compound 465],"Plant response rating: Rice, Water Seeded",[10]; 32 g ai/ha,0
same,"Plant response rating: Rice, Water Seed.",[10]; 64 g ai/ha,0
same,"Plant response rating: Rice, Water Seed.",[10]; 125 g ai/ha,35
same,"Plant response rating: Rice, Water Seeded",[10]; 250 g ai/ha,60
same,Plant response rating: Barnyardgrass,[11]; 32 g ai/ha,100
same,Plant response rating: Barnyardgrass,[11]; 64 g ai/ha,100
same,Plant response rating: Barnyardgrass,[11]; 125 g ai/ha,100
same,Plant response rating: Barnyardgrass,[11]; 250 g ai/ha,100
same,"Plant response rating: Watergrass, Late",[12]; 32 g ai/ha,85
same,"Plant response rating: Watergrass, Late",[12]; 64 g ai/ha,00
same,"Plant response rating: Watergrass, Late",[12]; 125 g ai/ha,100
same,"Plant response rating: Watergrass, Late",[12]; 250 g ai/ha,100
same,Plant response rating: Monochoria,[13]; 32 g ai/ha,50
same,Plant response rating: Monochoria,[13]; 64 g ai/ha,75
same,Plant response rating: Monochoria,[13]; 125 g ai/ha,100
same,Plant response rating: Monochoria,[13]; 250 g ai/ha,100
